Test systems include A549 NSCLC; HCT-116 colon; U251 CNS; EKVX NSCLC; MALME-3M melanoma; NCI-H226 lung; T-47D breast; UACC-257 melanoma; M14 melanoma; OVCAR-3 ovarian.
Assay in all cases: NCI tumour cell line growth inhibition, 48 h

SMILES strings stand for the structures. Where “and” joins values, the source holds several entries; their conditions need not be identical. Identical values can stand only once.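 Exposure lasted 48 hours, with cells grown in 96-well plates and compounds tested at five concentrations. GI50 marks 50% less growth. Definition used: TGI = concentration required for complete inhibition of growth.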

In the case of `CCN(CC)CCOc1nc2cc(OC)c(OC)cc2c2c1-c1ccc(OC)cc1C2=O`, the GI50 in the experiment on A549 NSCLC is 1.48 µM; in the experiment with HCT-116 colon, 1.35 µM; with U251 CNS, 2.42 µM; with EKVX NSCLC, 14.2 µM; with MALME-3M melanoma, 21.1 µM; with NCI-H226 lung it was 13.6 µM. For the same molecule, the GI50 in the experiment with T-47D breast was 18.4 µM; in the experiment with UACC-257 melanoma, 19.8 µM; in the experiment on M14 melanoma, 11.7 µM; in the experiment on OVCAR-3 ovarian it was 11.7 µM. Moreover, the TGI in the experiment on A549 NSCLC was determined as 2.87 µM; with HCT-116 colon, 2.63 µM; in the experiment with U251 CNS, 18.7 µM; in the experiment on EKVX NSCLC, 28.1 µM; in the experiment on MALME-3M melanoma, 36.9 µM; in the experiment with NCI-H226 lung it was 35.1 µM. Moreover, the TGI amounted to 38.2 µM with T-47D breast, 34.3 µM in the experiment with UACC-257 melanoma, 24 µM with M14 melanoma and 24 µM in the experiment on OVCAR-3 ovarian.
Turning to `CC[C@H](C)[C@H](NC(=O)c1nccn1C)C(=O)N(C)[C@H](C[C@@H](OC(C)=O)c1nc(C(=O)N[C@@H](Cc2ccccc2)C[C@H](C)C(=O)OC)cs1)C(C)C`, the GI50 is 2.43 µM with A549 NSCLC; 0.724 µM in the experiment on HCT-116 colon; 1.38 µM in the experiment on U251 CNS; 1.72 µM with EKVX NSCLC; 5.87 µM in the experiment with MALME-3M melanoma; 8.51 µM in the experiment with NCI-H226 lung. In addition, the results for the GI50 with T-47D breast, in the experiment with M14 melanoma and in the experiment on OVCAR-3 ovarian were greater than 33.3 µM, 0.557 µM and 0.481 µM, respectively. Also, the TGI with A549 NSCLC, in the experiment with HCT-116 colon, with U251 CNS, with EKVX NSCLC, with MALME-3M melanoma and with NCI-H226 lung was greater than 33.3 µM in each case. The TGI in the experiment on T-47D breast is greater than 33.3 µM; in the experiment on M14 melanoma, 1.6 µM; in the experiment with OVCAR-3 ovarian, 1.65 µM.
As for `COc1ccc(/C=C/c2cnc3ccccc3n2)cc1OC`, the TGI in the experiment with A549 NSCLC, in the experiment on HCT-116 colon, in the experiment on U251 CNS, in the experiment on EKVX NSCLC, in the experiment with MALME-3M melanoma and in the experiment with NCI-H226 lung was greater than 100 µM each time. The TGI in the experiment with T-47D breast, in the experiment with UACC-257 melanoma, with M14 melanoma and in the experiment on OVCAR-3 ovarian was greater than 100 µM in each case.
Regarding `CC(C)(F)C[C@H](N[C@@H](c1ccc(-c2ccc(S(C)(=O)=O)cc2)cc1)C(F)(F)F)C(=O)NC1(C#N)CC1`, the GI50 is > 55 µM and 41.8 µM in the experiment on A549 NSCLC; 22 µM and > 100 µM in the experiment with HCT-116 colon; 17.9 µM and 30.3 µM in the experiment on U251 CNS; 30.7 µM with EKVX NSCLC; 17.5 µM and 22.2 µM in the experiment with MALME-3M melanoma; 16.4 µM and 23.6 µM in the experiment with NCI-H226 lung. Moreover, the GI50 is 35.7 µM and 99.7 µM in the experiment on T-47D breast; > 55 µM and 61.8 µM in the experiment on UACC-257 melanoma; greater than 100 µM in the experiment on M14 melanoma; > 55 µM and 19.9 µM in the experiment with OVCAR-3 ovarian. In addition, the TGI was greater than 100 µM with A549 NSCLC; 55 µM and > 100 µM in the experiment with HCT-116 colon; 55 µM and > 100 µM with U251 CNS; 55 µM with EKVX NSCLC; 55 µM and 62 µM in the experiment with MALME-3M melanoma; 55 µM and 63.6 µM with NCI-H226 lung. The TGI in the experiment on T-47D breast was 55 µM and > 100 µM; with UACC-257 melanoma, greater than 100 µM; with M14 melanoma, greater than 100 µM; with OVCAR-3 ovarian, > 55 µM and 47.9 µM.
With `N#Cc1ncc(N2C(=O)C3(CCC3)N(c3ccc(OC4CCNCC4)nc3)C2=S)cc1C(F)(F)F`, the GI50 in the experiment on A549 NSCLC was 27.7 µM; in the experiment with HCT-116 colon, 11.7 µM; in the experiment on U251 CNS, 20.2 µM; with EKVX NSCLC, 18 µM; in the experiment on MALME-3M melanoma it was 13.2 µM; with NCI-H226 lung it was 15.7 µM. Also, the GI50 in the experiment with T-47D breast is 12.2 µM; in the experiment with UACC-257 melanoma it was 12.1 µM; in the experiment with M14 melanoma, 7.31 µM. For the same molecule, the TGI is greater than 100 µM in the experiment with A549 NSCLC; 24.4 µM with HCT-116 colon; 48.7 µM with U251 CNS; 46.4 µM in the experiment on EKVX NSCLC; 27.6 µM with MALME-3M melanoma; 34 µM with NCI-H226 lung. Further, the figures for the TGI in the experiment with T-47D breast, in the experiment with UACC-257 melanoma and in the experiment on M14 melanoma were 49.6 µM, 25.8 µM and 20.6 µM, respectively.
As to `Cc1ccc(/C=C2\CN(Cc3cn(CCNc4ccnc5cc(Cl)ccc45)nn3)C/C(=C\c3ccc(C)cc3)C2=O)cc1`, the GI50 in the experiment on A549 NSCLC was 1.8 µM; with HCT-116 colon, 1.68 µM; with U251 CNS, 1.57 µM; in the experiment with MALME-3M melanoma, 1.7 µM; in the experiment on NCI-H226 lung it was 2.03 µM; in the experiment with T-47D breast, 2.5 µM. Also, the GI50 was 1.7 µM in the experiment with UACC-257 melanoma, 2.2 µM in the experiment on M14 melanoma and 1.8 µM in the experiment with OVCAR-3 ovarian. The TGI in the experiment with A549 NSCLC turned out to be 3.73 µM; in the experiment on HCT-116 colon, 3.27 µM; in the experiment on U251 CNS, 3.01 µM; in the experiment on MALME-3M melanoma, 3.47 µM; in the experiment on NCI-H226 lung, 4.8 µM; with T-47D breast it was 6.53 µM. Besides, the TGI in the experiment on UACC-257 melanoma turned out to be 3.38 µM; in the experiment with M14 melanoma, 4.62 µM; in the experiment with OVCAR-3 ovarian, 3.24 µM.
On to `N=C1C(c2nc(-c3ccc(Br)cc3)cs2)=C(O)CN1CC1CCCO1` (stereo unspecified), for which the GI50 in the experiment on A549 NSCLC, in the experiment with U251 CNS, in the experiment on EKVX NSCLC, in the experiment on MALME-3M melanoma, in the experiment with NCI-H226 lung and in the experiment on T-47D breast was greater than 100 µM each time. Also, the GI50 in the experiment with UACC-257 melanoma is greater than 100 µM. The TGI in the experiment with A549 NSCLC, with U251 CNS, in the experiment with EKVX NSCLC, in the experiment with MALME-3M melanoma, in the experiment on NCI-H226 lung and with T-47D breast was greater than 100 µM throughout. The same molecule had a TGI in the experiment on UACC-257 melanoma greater than 100 µM.
`C=C(C)[C@@H]1CC[C@]2(C)[C@H](CC=C3[C@@H]4[C@H](C)[C@@H](C)CC[C@]4(CO)CC[C@]32C)[C@@]1(C)CCCN`: the GI50 is 1.59 µM in the experiment with A549 NSCLC; 0.807 µM in the experiment with HCT-116 colon; 1.08 µM in the experiment on EKVX NSCLC; 0.734 µM in the experiment on MALME-3M melanoma; 6.72 µM with NCI-H226 lung; 1.51 µM with T-47D breast. The GI50 was 1.04 µM in the experiment with UACC-257 melanoma, 0.846 µM with M14 melanoma and 0.934 µM in the experiment with OVCAR-3 ovarian. The TGI is 5.11 µM in the experiment on A549 NSCLC; 1.54 µM with HCT-116 colon; 2.94 µM in the experiment on EKVX NSCLC; 1.42 µM with MALME-3M melanoma; 18.3 µM in the experiment on NCI-H226 lung; 5.15 µM in the experiment with T-47D breast. Also, the TGI in the experiment on UACC-257 melanoma was 2.21 µM; with M14 melanoma, 1.76 µM; in the experiment on OVCAR-3 ovarian, 1.79 µM.

The values above are taken from PubChem BioAssay (NCI).
